Test results taken from patent US9359314B2, “Thiazine amide derivative and pharmaceutical composition and use thereof” (Institute Of Pharmacology And Toxicology Academy Of …, priority 2012, dated 2016).

What was measured:
[1] = system: BCAO-LBP mice; assay: Anti incomplete cerebral ischemia effect in mouse bilateral carotid artery occlusion with low blood pressure (BCAO-LBP) model, intragastric administration; type: in vivo, Kunming mice; conditions: 30 mg/kg i.g once per day for 3 d, x ± SEM; for Neural deficit score: medium group 3.92 ± 0.25; for MDA content: whole brain, medium group 40.94 ± 1.754
Excerpt: The example, which took Kunming mice as experimental subjects, investigated the protection of prevention administration of the compound of the present invention against incomplete cerebral ischemia of mice, through intravenous and intragastric administration, on mouse bilateral carotid artery occlusion with low blood pressure (BCAO-LBP) model, by measuring neurological function score and MDA content in brain.
2.1.2 Preparation of drug for intragastric administration: the compound of the present invention was made into 30 mg/kg by using 0.7% CMC-Na, fully and uniformly mixed with sonication to afford a solution of 1.5 mg/ml. Intragastric (i.g) administration was performed according to 0.2 ml/10 g.
28 mice which had adapted to the laboratory environment for one week were divided into balanced groups according to body weight, i.g administered respectively with 0.7% CMC-Na or the compound of the present invention, once per day for continuous 3 d. The specific groups were as follows:
drug group: 12 mice, with i. g of solution of compounds of the present invention separately, wherein the dosage was 30 mg/kg
2.3.1 Mouse bilateral carotid artery ligation: the mouse was performed with orbit bloodletting (about 30% of the total blood volume of the mouse) to lower the blood pressure 1 h later after last administration, then the mouse was fixed on an operation plate in a supine position, and an incision in the middle of the neck was made. The common carotid artery was exposed with blunt separation, and 2 sutures were prepared under each end of the exposed artery, and both end of the artery were ligatured, respectively. When the ligation was completed for the […], started timing, then cut the common carotid artery between the two ligations, and the incision was sutured. In the sham operation group, the common carotid artery was separated without ligation. The mouse was rapidly released after the operation, the behavior in 6 h and the death time of the mouse was observed and recorded (scored by a blind method according to the following table). The brain was quickly took out after death, the cerebellum was removed, and the MDA content in the whole brain was determined by a TBA method.
The brain of a mouse was taken out, weighted, prepared into 15% brain homogenate with N.S, 1.2 ml of the homogenate was taken out and put into a 37° C. water bath for 1 h (shaked once every 10 min), then taken out from water, added with 0.6 ml of 20% trichloroacetic acid, uniformly mixed, and stood for 10 min, centrifugated at 2000 r for 10 min, 1.2 ml of supernatant fluid was added with 0.6 ml of 0.67% TBA, and put into a boiling water bath for 10 min, then cooled, and OD value was determined at 532 nm.
Experimental data was represented by x±SEM, SPSS13.0 statistical software was applied, homogeneity of variance was judged by single-factor variance analysis. The homogeneity of variance was tested by LSD, the non-homogeneity of variance was tested by Dunnett's T3, the significant differences between the groups were compared and P<0.05 represented a statistical significance.

[2] = system: chicken embryonic dorsal root ganglia; assay: Neurotrophic activity: in-vitro serum-free culture model of chicken embryonic dorsal root ganglia, neurite growth score; type: cell-based; conditions: 48 h, score 0-3, control 0.33
Method: The neurotrophic activity of the compound of the present invention can be reflected on a variety of in-vitro biological models, such as an in-vitro serum-free culture model of chicken embryonic dorsal root ganglia. Chicken embryo incubated for 8 d was used, and spine and ganglia on the two sides were exposed under a dissecting microscope in sterile environment. The dorsal root ganglia was picked one by one with tweezers, inoculated into culture bottles laid with rat tail collagen according to 5-6 dorsal root ganglia per bottle, two bottles were prepared per dose, and cultured at 37° C., 5% of CO2, for 1 h in an incubator for adherence, then added with a serum-free culture medium DMEM containing NGF (0.15 ng/mL) and the compound of the present invention, while the control group was only added with the culture medium and the same dose of NGF. After being cultured in the incubator for 48 h, the growth of the neurite around dorsal root ganglia was observed under an inverted phase contrast microscope and scored according to the length and density of the neurite, wherein 0 point represents no neurite; 1 point represents the neurite was sparse; 2 points represent the neurite was relatively long or dense; and 3 points represent the neurite was long and dense. The score of the growth of neurite of chicken embryonic dorsal root ganglion under the promotion of the compound of the present invention with different dosage was shown in table 1, wherein each score is an average of five dorsal root ganglia.

[3] = system: MDCK-MDR1 cells
Excerpt: MDCK-MDR1 cells are monolayer cells with high expression of a P-gp transporter after MDR1 genes are transfected in MDCK (Madin-Darby canine kidney epithelial cells). Due to the compactness of the monolayer cells and high expression of a pharmaceutical efflux protein, the cells have a similarity to the structure of the blood-brain barrier (BBB), and can be used as one of the models for evaluating the BBB permeability. Because the compounds of the present invention targeted at the central nervous system and were needed to permeate the BBB, the MDCK-MDR1 cells were applied to research the membrane permeability, and the BBB permeability was preliminarily evaluated.
The cryopreserved MDCK-MDR1 cells were fast thawed in a 37° C. water bath. The postthawed cells were added into a DMEM culture medium containing 10% FBS, cultured in an incubator at 37° C., 5% CO2, with the relative humidity of 90%, and the culture medium was replaced every other day. After 1-2 days' growth for cell fusion, the cells were digested at 37° C., with the mixed digestion solution of 0.25% trysin-EDTA (0.2%), and subcultured according to a certain ratio, wherein the cells used for the experiment are 40˜60-generation cells.
When 80% of the cells were fused, the cells were suspended with a complete culture medium, and inoculated into a Millicell plate according to 1×10^6-mL^−1. The culture solution was changed once every two days, then once every day after 1 week. After cultured for 5 days, the cells were ready for transport experiment when the resistance achieves a platform (>2000 Ω·cm^2).
The solution in the lower pools was collected at 0, 30, 90 and 120 min and stored at −20° C. for later measurement. The permeation amount of the Rho-123 in the lower pools was detected by a fluorescence spectrophotometer, wherein the transmission wavelength was set to […] and the excitation wavelength was set to 530 nm.
The Millicell inoculated with cells was soaked with HBSS solution at 37° C. for an appropriate time before the test, and slightly flushed to remove matters attached on the surfaces of the cells. […] Each concentration was repeated in three wells, the sample was precisely added with 50 μL of internal standard solution and 350 μL of ethyl acetate, shaked and uniformly mixed, centrifugated at 12000 rmp for 5 min, 300 μL of supernatant was took, volatilized to dryness, re-dissolved with 50 μL of acetonitrile and 10 μL was took for sampling and determination. Permeability from the basal surface to the cavity surface: drug was added from the basolateral side (BL), while the blank HBSS solution was added from the apical side (AP), and the following steps were same as those in the permeability test from the cavity surface to the basal surface.
The apparent permeability coefficient (Papp) of the drug reflected the capability of permeating the monolayer cells of the drug and the absorption speed and degree of the drug, which can be calculated by the following formula: […]
wherein, ΔQ was the permeation amount of the drug in a Δt time period, A was the surface area of the cells, namely the area (0.6 cm^2) of a support membrane in the model, and CO was the initial concentration. The unit of the Papp was commonly represented by cm·h^−1 or cm·s^−1.
The sample was detected by LC/MS. Concentration of each sample was quantified with a standard curve (50 nM-10000 nM).

[4] = compound 1 pM + NGF (0.15 ng/mL)
[5] = compound 100 pM + NGF (0.15 ng/mL)

Structure (SMILES)	Papp(×10^−6) [3]	melting point [°C]	Neural deficit score [1]	MDA content [1] [nmol/g]	Mean score (growth of neurite of chicken embryonic dorsal root ganglion) [2, 4]	Mean score (growth of neurite of chicken embryonic dorsal root ganglion) [2, 5]
Cc1ccc(S(=O)(=O)N2CCSC[C@H]2C(=O)N[C@H](CC(C)C)C(=O)OC(C)C)cc1 [Example 8, (2R)-4-Methyl-2-{[(3R)-4-(toluene-4-sulfonyl)-thiomorpholine-3-carbonyl]-amino}-pentanoic acid isopropyl ester]	39.5 ×10^−6	–	2.67 ± 0.31	33.27 ± 1.91	1.68	2.25
CCOC(=O)[C@H](CC(C)C)NC(=O)[C@@H]1CSCCN1S(=O)(=O)c1ccc(C)cc1 [Example 5, (2S)-4-Methyl-2-{[(3R)-4-(toluene-4-sulfonyl)-thiomorpholine-3-carbonyl]-amino}-pentanoic acid ethyl ester]	8.38 ×10^−6	–	3.62 ± 0.31	36.09 ± 1.85	0.65	1.55
CCOC(=O)[C@@H](CC(C)C)NC(=O)[C@@H]1CSCCN1S(=O)(=O)c1ccc(C)cc1 [Example 6, (2R)-4-Methyl-2-{[(3R)-4-(toluene-4-sulfonyl)-thiomorpholine-3-carbonyl]-amino}-pentanoic acid ethyl ester]	19.2 ×10^−6	–	3.08 ± 0.40	30.87 ± 0.95	1.23	1.88
CCCOC(=O)[C@@H](CC(C)C)NC(=O)[C@@H]1CSCCN1S(=O)(=O)c1ccc(C)cc1 [Example 7, (2R)-4-Methyl-2-{[(3R)-4-(toluene-4-sulfonyl)-thiomorpholine-3-carbonyl]-amino}-pentanoic acid propyl ester]	49.8 ×10^−6	–	2.91 ± 0.28	34.90 ± 1.65	1.46	1.95

More lines, main results first:

Papp(×10^−6) [3]	melting point [°C]	Structure (SMILES)	Neural deficit score [1]	MDA content [1] [nmol/g]	Mean score (growth of neurite of chicken embryonic dorsal root ganglion) [2, 4]	Mean score (growth of neurite of chicken embryonic dorsal root ganglion) [2, 5]
–	87 to 89	Cc1ccc(S(=O)(=O)N2CCSC[C@H]2C(=O)N[C@H](CC(C)C)C(=O)O)cc1 (hydrate or solvate) [Example 10, (2R)-4-Methyl-2-{[(3R)-4-(toluene-4-sulfonyl)-thiomorpholine-3-carbonyl]-amino}-pentanoic acid]	–	–	–	–
12.4 ×10^−6	91 to 93	Cc1ccc(S(=O)(=O)N2CCSC[C@H]2C(=O)N[C@H](CC(C)C)C(=O)OCc2ccccc2)cc1 [Example 9, (2R)-4-Methyl-2-{[(3R)-4-(toluene-4-sulfonyl)-thiomorpholine-3-carbonyl]-amino}-pentanoic acid benzyl ester]	–	–	–	–
34.1 ×10^−6	–	Cc1ccc(S(=O)(=O)N2CCSC[C@H]2C(=O)N[C@H](CC(C)C)C(=O)O)cc1 [Example 10, (2R)-4-Methyl-2-{[(3R)-4-(toluene-4-sulfonyl)-thiomorpholine-3-carbonyl]-amino}-pentanoic acid]	–	–	–	–
